Experimental data: patent US11352352B2, “Aminopyrimidine compound, preparation method therefor and use thereof” (BEIJING ADAMADLE BIOTECHNOLOGY LIMITED LIABILITY COMPANY, priority 2017, dated 2022)

What was measured:
NCI-H1975 = experiment: Cell proliferation inhibition experiment, CellTiter-Glo (CTG) method; format: cell-based; conditions: for IC50: NCI-H1975 cells, CTG, 3 days; for A-431/NCI-H1975 Selectivity: ratio of A-431 IC50 to NCI-H1975 IC50
Procedure, shortened: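 NCI-H1975 cells with viability above 90% by trypan blue were seeded at 90 μL per well in black 96-well plates and incubated overnight at 37° C., 5% CO2. Compounds were added at nine concentrations in triplicate, and viability was measured with CellTiter-Glo luminescence on EnVision. IC50 came from non-linear S-curve fitting in GraphPad Prism 5.0.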

PC-9 = experiment: as above; format: cell-based; conditions: PC-9 cells, 3 days
Procedure, shortened: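 Cells in log-phase growth (viability above 90% by trypan blue) were seeded at 90 μL per well in black-walled, clear-bottom 96-well plates and incubated overnight at 37° C., 5% CO2. A T0 plate was read the next day. Test compounds were added at nine concentrations in triplicate with a solvent control. Viability was measured by CellTiter-Glo luminescence on EnVision, and IC50 came from non-linear S-curve fitting in GraphPad Prism 5.0.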

P-gp = biological target: T1, P-gp (Homo sapiens, UniProt P08183); experiment: P-gp substrate evaluation experiment (MDCKII-MDR1 Transwell drug penetration test); format: in vitro ADME; conditions: dog, MDCK-MDR1, pH 7.4; read-out: ER (Efflux Ratio)
T1 construct: expressed in transfected cells; host or cells: MDCKII-MDR1 (MDCKII canine kidney cells expressing MDR1)
T1 sequence (P08183 whole entry): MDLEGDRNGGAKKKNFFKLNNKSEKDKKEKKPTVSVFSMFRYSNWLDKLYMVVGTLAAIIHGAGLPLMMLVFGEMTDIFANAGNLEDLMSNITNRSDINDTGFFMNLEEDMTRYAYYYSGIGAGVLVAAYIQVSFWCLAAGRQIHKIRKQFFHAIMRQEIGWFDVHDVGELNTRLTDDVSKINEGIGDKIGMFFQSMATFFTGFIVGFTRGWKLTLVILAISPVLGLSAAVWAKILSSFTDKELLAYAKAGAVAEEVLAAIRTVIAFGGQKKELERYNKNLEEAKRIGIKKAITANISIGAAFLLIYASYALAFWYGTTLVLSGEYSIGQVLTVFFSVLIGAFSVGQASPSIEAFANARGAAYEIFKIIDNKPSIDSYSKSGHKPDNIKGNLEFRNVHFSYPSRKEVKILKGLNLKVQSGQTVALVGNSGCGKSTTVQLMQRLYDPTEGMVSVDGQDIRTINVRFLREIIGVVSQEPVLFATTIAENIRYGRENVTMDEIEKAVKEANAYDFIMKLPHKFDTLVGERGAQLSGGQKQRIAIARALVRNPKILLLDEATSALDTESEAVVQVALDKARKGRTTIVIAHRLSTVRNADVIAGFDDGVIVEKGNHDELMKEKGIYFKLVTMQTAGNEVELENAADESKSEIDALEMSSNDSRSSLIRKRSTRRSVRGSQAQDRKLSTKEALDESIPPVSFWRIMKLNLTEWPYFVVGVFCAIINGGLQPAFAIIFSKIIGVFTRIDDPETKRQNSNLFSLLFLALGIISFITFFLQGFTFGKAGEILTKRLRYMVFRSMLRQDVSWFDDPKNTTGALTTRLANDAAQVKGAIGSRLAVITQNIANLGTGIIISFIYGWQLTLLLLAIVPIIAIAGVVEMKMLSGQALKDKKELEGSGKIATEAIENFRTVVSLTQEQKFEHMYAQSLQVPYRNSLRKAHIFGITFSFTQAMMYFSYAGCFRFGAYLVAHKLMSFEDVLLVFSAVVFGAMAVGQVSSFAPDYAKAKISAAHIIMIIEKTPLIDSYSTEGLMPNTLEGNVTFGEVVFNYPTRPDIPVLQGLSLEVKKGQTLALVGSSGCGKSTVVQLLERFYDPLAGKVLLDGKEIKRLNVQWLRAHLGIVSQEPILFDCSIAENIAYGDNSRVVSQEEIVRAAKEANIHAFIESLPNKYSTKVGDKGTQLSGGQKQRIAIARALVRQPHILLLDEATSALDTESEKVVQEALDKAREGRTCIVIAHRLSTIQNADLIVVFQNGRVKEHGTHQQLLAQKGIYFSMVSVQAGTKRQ
Description: P-gp Substrate Evaluation Experiment
Cell Culture • 1) High glucose DMEM medium containing L-glutamine was used and 10% fetal bovine serum, 0.1 mg/mL streptomycin and 0.6 mg/mL penicillin were added. • 2) MDCKII-MDR1 was cultured in a T-75 cell culture bottle. The incubator was set at the condition of 37° C., 5% CO2 and 95% relative humidity. Cells could be inoculated in Transwell when the cell confluence reached 70-90%. • 3) Before cell plant, 50 μL cell culture medium was added to each well in the upper chamber of the Transwell, and […] cell culture medium was added to the lower chamber of the Transwell.
Inoculation of MDCKII-MDR1 Cells • 1) Cell suspension was added to the upper chamber of the 96-well Transwell plate with […] each well, and the final inoculation density was 5.45×10^5 cells/cm^2. • 2) The medium was changed 48 hours after inoculation, the culture was carried out for 4-7 days, and the medium was changed every other day.
Evaluation of Cell Monolayer Integrity • 1) After 4-7 days of culture, MDCKII-MDR1 and MDKII should merge and differentiate completely. At this time, they could be applied to penetration test. • 2) The resistance of cell monolayer was measured by a resistance meter (Millipore, USA) and the resistance of each well was recorded. • 3) After finishing the detection, the Transwell plate was put back into the incubator. • 4) Resistance value was calculated: Resistance measured (ohms)×layer area (cm^2)=TEER value (ohm·cm^2)
If TEER value was less than 42 ohms·cm^2, the well can not be used for penetration testing.
Drug Penetration Test • 1) The MDCKII-MDR1 Transwell plate was taken out from the incubator. The cell monolayer was rinsed with HBSS buffer (25 mM HEPES, pH 7.4) twice and incubated for 30 minutes at 37° C. • 2) The transport rate of compounds from the top to the bottom was determined. […] 70 μL supernatant was drawn, diluted with equal volume of water and then subjected to LC-MS/MS analysis. All samples were prepared in three parallel ways. • 6) The cell monolayer integrity after 2-hour incubation was evaluated by leakage of fluorescent yellow, HBSS (25 mM HEPES, pH 7.4) was used to dilute the stock solution of fluorescent yellow till the final concentration was 100 μM. 100 μL fluorescent yellow solution was added to each well in the upper chamber of the Transwell plate and 300 μL HBSS (25 mM HEPES, pH 7.4) was added to each well in the lower chamber of the Transwell plate. After incubation at 37° C. for 30 minutes, 80 μL solution was drawn respectively from each well in the upper and lower chamber to a new 96-well plate. The fluorescence was determined at 485 nm as excitation wavelength and 530 nm as emission wavelength by using a microplate reader.
Data calculation was carried out through Excel, the apparent permeability index (Papp, cm/s) of compounds was calculated through the formula shown as follow: […]
wherein, the membrane area in the formula is the membrane area of Transwell-96 plate (0.143 cm^2); the unit of incubation time is second (s).
Efflux ratio was calculated through the formula shown as follow: […]

A-431 = experiment: Cell proliferation inhibition experiment, CellTiter-Glo (CTG) method; format: cell-based; conditions: A-431 cells, 3 days
Procedure, shortened: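 CTG luminescence measured after 3-day compound exposure, with a T0 plate read the day after seeding and solvent wells as control. Nine concentrations, 3-fold steps, in triplicate: A-431 from 30 μM, NCI-H1975 and PC-9 from 1.111 μM. IC50 derived by non-linear S-curve regression.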

Row | SMILES | IC50 (NCI-H1975; Homo sapiens, NCI-H1975, 72 h) | A-431/NCI-H1975 Selectivity (NCI-H1975) | IC50 (PC-9; Homo sapiens, PC-9, 72 h) | efflux ratio at 2 h (P-gp) | IC50 (A-431; Homo sapiens, A-431, 72 h) | IC50 (NCI-H1975) | IC50 (PC-9) | IC50 (A-431)
1 | C=CC(=O)Nc1cc(Nc2nccc(-c3ccc4c(cnn4C)c3)n2)c(OC)cc1N(C)CCN(C)C [compound 3] | 4.1 nM | 120.3 | 7.9 nM | 5.87 | 491 nM |  |  | 
2 | C=CC(=O)Nc1cc(Nc2cc(-c3ccc4c(cnn4C)c3)ncn2)c(OC)cc1N1CCN(C)CC1 [compound 8] | 3.5 nM | 251.1 | 27.3 nM | 3.14 | 872 nM |  |  | 
3 | C=CC(=O)Nc1cc(Nc2cc(-c3ccc4c(cnn4C)c3)ncn2)c(OC)cc1N1CC(C)N(C)C(C)C1 (centres unmarked) [compound 23] | 13.7 nM | 45.0 | 9 nM | 4.28 | 617 nM |  |  | 
4 | C=CC(=O)Nc1cc(Nc2cc(-c3ccc4c(cnn4C)c3)ncn2)c(OC)cc1N1C[C@@H](C)N(C)[C@@H](C)C1 [compound 24] | 11.8 nM | 90.1 | 8.1 nM | 1.05 | 1060 nM |  |  | 
5 | C=CC(=O)Nc1cc(Nc2cc(-c3ccc4c(cnn4C)c3)ncn2)c(OC)cc1N1CCC(N(C)C)CC1 [compound 26] | 10.4 nM | 20.7 | 9.1 nM | 5.79 | 216 nM |  |  | 
6 | C=CC(=O)Nc1cc(Nc2cc(-c3ccc4c(cnn4C)c3)ncn2)c(OC)cc1N1CCC(N2CCOCC2)CC1 [compound 27] |  | 27.2 |  | 1.67 |  | 14.2 nM | 21.6 nM | 387 nM
7 | C=CC(=O)Nc1cc(Nc2cc(-c3ccc4c(cnn4C)c3)ncn2)c(OC)cc1N1CCC(N2CCN(C)CC2)CC1 [compound 33] | 5.6 nM | 145.7 | 8.2 nM | 7.7 | 813 nM |  |  | 
8 | C=CC(=O)Nc1cc(Nc2cc(-c3ccc4c(cnn4C)c3)ncn2)c(OC)cc1N1CCC(C2CCN(C)CC2)CC1 [compound 34] | 26.3 nM | 74.1 | 10.7 nM | 6.12 | 1950 nM |  |  | 
9 | C=CC(=O)Nc1cc(Nc2cc(-c3ccc4c(cnn4C)c3)ncn2)c(OC)cc1N(C)CCN1CCN(C)CC1 [compound 60] | 10.6 nM | 217.0 | 9.6 nM | 6.49 | 2300 nM |  |  | 
10 | C=CC(=O)Nc1cc(Nc2cc(-c3ccc4c(cnn4C)c3)ncn2)c(OC)cc1N(C)CCN(CC)CC [compound 62] | 33.5 nM | 35.0 | 15.7 nM | 2.44 | 1170 nM |  |  | 
11 | C=CC(=O)Nc1cc(Nc2nccc(-c3ccc4c(cnn4C)c3)n2)c(OC)cc1N1CCC(N2CCCC2)CC1 [compound 68] | 14.7 nM | 62.7 | 15.3 nM | 8.98 | 921 nM |  |  | 
12 | C=CC(=O)Nc1cc(Nc2cc(-c3ccc4c(cnn4C)c3)ncn2)c(OC)cc1N(C)C1CCN(C2CCN(C)CC2)CC1 [compound 70] | 17.6 nM | 66.1 | 14.7 nM | 41.4 | 1160 nM |  |  | 
13 | C=CC(=O)Nc1cc(Nc2cc(-c3ccc4c(cnn4C)c3)ncn2)c(OC)cc1N1CCN(CCOC)CC1 [compound 99] | 9.8 nM | 90.4 | 43.2 nM | 1.54 | 886 nM |  |  | 
14 | C=CC(=O)Nc1cc(Nc2cc(-c3ccc4c(cnn4C)c3)ncn2)c(OC)cc1N1CCC(N2C[C@@H](C)N(C)[C@@H](C)C2)CC1 [compound 100] | 5.7 nM | 114.7 | 15.3 nM | 20 | 654 nM |  |  | 
15 | C=CC(=O)Nc1cc(Nc2cc(-c3ccc4c(cnn4C)c3)ncn2)c(OC)cc1N1CCC(N2C[C@@H](C)O[C@@H](C)C2)CC1 [compound 103] | 8 nM | 81.0 | 19.2 nM | 2.28 | 648 nM |  |  | 
16 | C=CC(=O)Nc1cc(Nc2cc(-c3ccc4c(cnn4C)c3)ncn2)c(OC)cc1OCCN(C)C [compound 104] | 6 nM | 90.6 | 14.2 nM | 3.12 | 544 nM |  |  | 
17 | C=CC(=O)Nc1cc(Nc2cc(-c3ccc4c(cnn4C)c3)ncn2)c(OC)cc1N1CCC(N2CCCC2)CC1 [compound 108] | 3.2 nM | 177.3 | 5.7 nM | 18.1 | 567 nM |  |  | 
18 | C=CC(=O)Nc1cc(Nc2cc(-c3ccc4c(cnn4C)c3)ncn2)c(OC(F)F)cc1N1CCN(CCN(C)C)CC1 [compound 115] | 5.3 nM | 100.5 | 9 nM | 41.9 | 533 nM |  |  | 
19 | C=CC(=O)Nc1cc(Nc2cc(-c3ccc4c(cnn4CC)c3)ncn2)c(OC)cc1N1CCN(CCN(C)C)CC1 [compound 116] | 9.1 nM | 71.9 | 8.2 nM | 67.9 | 654 nM |  |  | 
20 | C=CC(=O)Nc1cc(Nc2cc(-c3ccc4c(cnn4C)c3)ncn2)c(OC)cc1N1CCC(N2CCN(C(C)=O)CC2)CC1 [compound 129] | 8 nM | 93.3 | 13.1 nM | 55.7 | 746 nM |  |  | 
21 | COc1cc(N(C)CCN(C)C)c(NC(=O)/C=C/CN(C)C)cc1Nc1cc(-c2ccc3c(cnn3C)c2)ncn1 [compound 131] | 9.6 nM | 60.2 | 14.8 nM | 51.7 | 578 nM |  |  | 
22 | C=CC(=O)Nc1cc(Nc2cc(-c3ccc4c(cnn4C)c3)ncn2)c(OC)cc1N(C)CCN(C)C(C)C [compound 138] | 16.8 nM | 56.3 | 12.3 nM | 2.17 | 946 nM |  |  | 
23 | C=CC(=O)Nc1cc(Nc2cc(-c3ccc4c(cnn4C)c3)ncn2)c(OC)cc1N1CCC(N2CCCCC2)CC1 [compound 144] | 6.8 nM | 84.1 | 16.4 nM | 11.6 | 572 nM |  |  | 
24 | C=CC(=O)Nc1cc(Nc2cc(-c3ccc4cnn(C)c4c3)ncn2)c(OC)cc1N1CCC(N2C[C@@H](C)O[C@@H](C)C2)CC1 [compound 155] | 13.6 nM | 64.2 | 6 nM | 0.93 | 874 nM |  |  | 
25 | C=CC(=O)Nc1cc(Nc2cc(-c3ccc4cnn(C)c4c3)ncn2)c(OC)cc1N1CCC(N2CCCC2)CC1 [compound 158] | 9.4 nM | 72.4 | 4.9 nM | 15.3 | 680 nM |  |  | 
